Source: PMC11013143, “4-Chloroisocoumarins as Chlamydial Protease Inhibitors and Anti-Chlamydial Agents” (Molecules, 2024)
In brackets after ≈: the same amount, converted by molar mass.

What was measured:
HEp-2 cells = assay: MTS cell viability assay, HEp-2 cells; assay type: cell-based, human; details: 24 h; for effect on HEp-2 cell viability: any tested concentration (31.25, 62.5, 125 µM)
Experimental: The cytotoxic effects of the 4-chloroisocoumarin compounds 2a–g and 6a–h (24 h) were tested against HEp-2 and McCoy B cells using the MTS cell viability assay. HEp-2 and McCoy B cells were selected, as these are routinely used for the cultivation of chlamydial species, and low cytotoxicity against host cells is required to evaluate the anti-chlamydial properties of a test compound [27].
HEp-2 (human epithelial type 2, CCL-23, ATCC®, Virginia, USA) or McCoy B (mouse fibroblast, CRL-1696, ATCC®) cells were grown to 80–100% confluence, and cell density was determined with a haemocytometer. Cells were then diluted to 1 × 10^5 cells/mL, and 100 µL was added to each well in a 96-well plate, with 3 wells left as controls. Cells were grown for 24 h, and the media was removed and then replaced with fresh media containing 0.1% DMSO and the drug for testing in triplicate. Drugs and cells were incubated for 24 h, and then 20 µL of MTS and PMS solution was added and then incubated for a further four hours. Absorbance was measured at 490 nm on a TECAN M200 Infinite plate reader and data were processed using Microsoft Excel^TM with the following equation to determine cell viability relative to DMSO controls. Cellviability%=AbsorbanceDrug−AbsorbanceDye/AbsorbanceDMSO−AbsorbanceDye

C. trachomatis = assay: Chlamydia trachomatis growth inhibition assay in HEp-2 host cells; assay type: cell-based; details: for statistical significance of anti-chlamydial activity: relative to solvent controls
Experimental: The workflow for the evaluation of chlamydial growth inhibition is described in the supplementary information (Figure S6). Briefly, HEp-2 cells were seeded in a 96-well plate and grown for 24 h; they were then infected with a fixed quantity of C. trachomatis. The infection was propagated for 4 h, and then a mixture of test compound and cycloheximide was added and the plate was incubated for a further 26 h (30 h post infection). The cells were fixed with methanol and then stained with fluorescent antibodies to visualize chlamydial inclusions, and the growth was measured using inclusion counts relative to vehicle controls.
HEp-2 cells were grown until confluent in a T-75 flask with DMEM (containing 10% FCS, gentamycin (0.05 mg/mL), streptomycin (0.1 mg/mL) and glutamine (Sigma-Aldrich Cat No. G7513, 4 mM); they were then harvested with trypsin, and the cell density was determined with a haemocytometer. Cells were diluted to 1 × 10^5 cells/mL, and 200 µL was dispensed to each well in a 96-well plate and then incubated for 24 h at 5% CO2 at 37 °C.
The supernatant was removed, and 100 µL of the respective chlamydia species in media (100,000 IFU/mL) was added, giving an MOI of 0.5. The plate was sealed and centrifuged at 500× g/28 °C for 30 min and then incubated for a further 3.5 h at 37 °C with 5% CO2. The supernatant was removed, and 100 µL of cycloheximide in DMEM (1 µg/mL) was added in addition to 100 µL of drug stock solution to each respective well with DMSO and media negative controls and also azithromycin positive control. The plate was incubated for a further 26 h.
The supernatant was removed, and wells were washed with PBS (2 × 150 µL) and then fixed in methanol for eight minutes. The methanol was removed and washed with additional PBS (2 × 150 µL) and stored at 4 °C with 100 µL PBS per well and then stained and analyzed using fluorescence microscopy, which is outlined below.
Cells in fixed plates were permeabilized with 0.5% Triton X-100 in PBS for 15 min and then blocked with 1% BSA in PBS for 45 min. Anti-HtrA polyclonal antibody (sera) (1:600) (in-house), anti-mouse tubulin (Sigma-Aldrich Cat no. T-5168, 1:3000) and DAPI (125 ng/mL) in PBS were added to each well (70 µL) and then gently shaken at room temperature while shielding it from light for 45 min. The primary antibodies were removed, and the wells were washed with PBS (4 × 150 µL). Secondary antibodies (goat anti-rabbit Alexafluor 488, Thermo Fisher Cat No. A-11008 and goat anti-mouse Alexafluor 568 (Thermo Fisher Cat No. A-11004)) in PBS (70 µL, 1:600 respectively) were added and the wells were gently shaken at room temperature while shielding them from light for 45 min. The antibodies were removed, and the wells were washed with PBS (5 × 150 µL); cells were then stored with PBS (100 µL per well) at 4 °C pending analysis.
Plates were analyzed on an INcell Analyzer 2200 (Cytiva Life Sciences, Marlborough, MA, USA) using both laser autofocus (10%) and software autofocus modes, with ten random images per well covering a minimum of 80% of the well at 10x magnification. Non-morphologically affected inclusions were counted using a macro in ImageJ (v1.54f), and MIC was defined as being one two-fold dilution more concentrated than MICTP (where MICTP is defined as the lowest concentration to produce ≥90% morphologically abnormal inclusions) relative to solvent controls.

[1] = 62.5 µM, 30 h post infection, HEp-2 host cells

| SMILES | effect on HEp-2 cell viability (HEp-2 cells) | statistical significance of anti-chlamydial activity (C. trachomatis; 62.5 µM) | anti-chlamydial activity against C. trachomatis (C. trachomatis; [1]) | other results |
| --- | --- | --- | --- | --- |
| CCC(C)Oc1oc(=O)c2cc(OC)ccc2c1Cl (racemic) [Compound 6h, (±)-7-Methoxy-3-sec-butoxy-4-chloroisocoumarin] | did not significantly affect cell viability | statistically significant anti-chlamydial activity | – | – |
| CCC(C)Oc1oc(=O)c2cc(I)ccc2c1Cl (racemic) [Compound 6e, (±)-3-sec-Butoxy-4-chloro-7-iodoisocoumarin] | – | statistically significant anti-chlamydial activity | did not significantly affect the efficacy of 2g | cytotoxicity against HEp-2 cells (HEp-2 cells; 62.5 µM): retained some cytotoxicity |
| CCC(C)Oc1oc(=O)c2ccccc2c1Cl (racemic) [Compound 2g, (±)-3-sec-Butoxy-4-chloroisocoumarin] | – | – | – | reduction of chlamydial growth (C. trachomatis; [1]): 49% |
| CCC(C)Oc1oc(=O)c2cc(N)ccc2c1Cl (racemic) [Compound 6a, (±)-7-Amino-4-chloro-3-sec-butoxyisocoumarin] | – | statistically significant anti-chlamydial activity | – | effect on HEp-2 cell viability / cytotoxicity (HEp-2 cells; 125 µM): reduced cell viability slightly; chlamydial inclusions affected (C. trachomatis; [1]): ≥ 90%; inhibition of C. trachomatis growth versus 90% threshold (C. trachomatis; any concentration tested, 30 h post infection, dose-response): did not consistently show inhibition greater than the 90% threshold |
| CCC(C)Oc1oc(=O)c2cc(NC(=O)C(F)(F)F)ccc2c1Cl (racemic) [Compound 6d, (±)-N-(4-chloro-1-oxo-3-sec-butoxy-isochromen-7-yl)-2,2,2-trifluoroacetamide] | did not significantly affect cell viability | statistically significant anti-chlamydial activity | comparable efficacy to the methoxy (6h) analogue | – |
| CCC(C)Oc1oc(=O)c2cc(N(C)C)ccc2c1Cl (racemic) [Compound 6b, (±)-7-(Dimethylamino)-3-sec-butoxy-4-chloroisocoumarin] | not found to significantly impact cytotoxicity | statistically significant anti-chlamydial activity | – | chlamydial inclusions affected (C. trachomatis; [1]): ≥ 90%; inhibition at 31.25 µM (C. trachomatis; Chlamydia trachomatis, HEp-2, concentrations ≥ 31.25 µM, 30 h post infection, dose-response): > 90%; MIC (C. trachomatis; Chlamydia trachomatis, MIC defined as twice the MICTP (>90% altered chlamydial morphology), read-out: MIC (minimum inhibitory concentration) against C. trachomatis): 62.5 µM (≈ 18.5 µg/mL) |
| CCC(C)Oc1oc(=O)c2cc(NC(C)=O)ccc2c1Cl (racemic) [Compound 6c, (±)-N-(4-Chloro-1-oxo-3-sec-butoxy-isochromen-7-yl)acetamide] | did not significantly affect cell viability | – | did not significantly affect the efficacy of 2g | – |
